{
  "source": "patent US20030104507A1",
  "about": "“Method for detection of ATP” (priority 2001, published 2003)",
  "key": {"LucPpe2m146": {"test_system": "LucPpe2m146", "assay": "Stability of reagent composition with LucPpe2m146 and detergent (RT, pH 7.0)", "format": "biochemical, Photuris pennsylvanica", "in_short": "(§1)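 Reagent with 50 μg/ml luciferase, luciferin, MgSO4, buffer and detergent at varying concentrations held at about 23° C; enzyme added just before first read. At timepoints, aliquots mixed 1:1 with media containing ATP and luminescence read immediately (0.5 s/well, triplicate); reaction half-lives and percent of original luminescence derived.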"}, "[1]": {"assay": "Precipitation of detergent in reagent composition samples", "format": "physicochemical"}, "LucPpy": {"target": "T1, LucPpy (Photinus pyralis, UniProt P08659)", "T1 construct": "purchased Promega E170A", "assay": "Stability of reagent composition with LucPpy and detergent (RT, pH 7.0)", "format": "biochemical", "settings": "LucPpy", "in_short": "as §1"}},
  "data": [
    {"smiles": "C[C@H](CCC(=O)[O-])[C@H]1CC[C@H]2[C@@H]3CC[C@@H]4C[C@H](O)CC[C@]4(C)[C@H]3C[C@H](O)[C@]12C.[Na+]", "note": "[Deoxycholate, sodium deoxycholate]", "values": [
      {"measurement": "Average Relative Light Units", "setting": "LucPpe2m146; LucPpe2m146, 0.02%, 1.0 min (head r67)", "value": 24307.30, "unit": "rlu"},
      {"measurement": "Percent of Luminescence Remaining", "setting": "LucPpe2m146; LucPpe2m146, 0.02%, 1.0 min (times of Table I r67)", "value": 100.00, "unit": "%"},
      {"measurement": "Average Relative Light Units", "setting": "LucPpe2m146; LucPpe2m146, 0.02%, 34 min (head r67)", "value": 24639.00, "unit": "rlu"},
      {"measurement": "Percent of Luminescence Remaining", "setting": "LucPpe2m146; LucPpe2m146, 0.02%, 34 min (times of Table I r67)", "value": 101.36, "unit": "%"},
      {"measurement": "Average Relative Light Units", "setting": "LucPpe2m146; LucPpe2m146, 0.02%, 65 min (head r67)", "value": 24717.97, "unit": "rlu"},
      {"measurement": "Percent of Luminescence Remaining", "setting": "LucPpe2m146; LucPpe2m146, 0.02%, 65 min (times of Table I r67)", "value": 101.69, "unit": "%"},
      {"measurement": "Average Relative Light Units", "setting": "LucPpe2m146; LucPpe2m146, 0.02%, 115 min (head r67)", "value": 23158.37, "unit": "rlu"},
      {"measurement": "Percent of Luminescence Remaining", "setting": "LucPpe2m146; LucPpe2m146, 0.02%, 115 min (times of Table I r67)", "value": 95.27, "unit": "%"},
      {"measurement": "Average Relative Light Units", "setting": "LucPpe2m146; LucPpe2m146, 0.02%, 175 min (head r67)", "value": 24655.43, "unit": "rlu"},
      {"measurement": "Percent of Luminescence Remaining", "setting": "LucPpe2m146; LucPpe2m146, 0.02%, 175 min (times of Table I r67)", "value": 101.43, "unit": "%"},
      {"measurement": "Average Relative Light Units", "setting": "LucPpe2m146; LucPpe2m146, 0.02%, 238 min (head r67)", "value": 24320.6, "unit": "rlu"},
      {"measurement": "Percent of Luminescence Remaining", "setting": "LucPpe2m146; LucPpe2m146, 0.02%, 238 min (times of Table I r67)", "value": 100.05, "unit": "%"},
      {"measurement": "Average Relative Light Units", "setting": "LucPpe2m146; LucPpe2m146, 0.02%, 286 min (head r67)", "value": 24303.9, "unit": "rlu"},
      {"measurement": "Percent of Luminescence Remaining", "setting": "LucPpe2m146; LucPpe2m146, 0.02%, 286 min (times of Table I r67)", "value": 99.99, "unit": "%"},
      {"measurement": "Average Relative Light Units", "setting": "LucPpe2m146; LucPpe2m146, 0.1%, 1.0 min (head r54)", "value": 5150.43, "unit": "rlu"},
      {"measurement": "Percent of Luminescence Remaining", "setting": "LucPpe2m146; LucPpe2m146, 0.1%, 1.0 min (times of Table I r54)", "value": 100.00, "unit": "%"},
      {"measurement": "Average Relative Light Units", "setting": "LucPpe2m146; LucPpe2m146, 0.1%, 34 min (head r54)", "value": 5031.12, "unit": "rlu"},
      {"measurement": "Percent of Luminescence Remaining", "setting": "LucPpe2m146; LucPpe2m146, 0.1%, 34 min (times of Table I r54)", "value": 97.68, "unit": "%"},
      {"measurement": "Average Relative Light Units", "setting": "LucPpe2m146; LucPpe2m146, 0.1%, 65 min (head r54)", "value": 6855.67, "unit": "rlu"},
      {"measurement": "Percent of Luminescence Remaining", "setting": "LucPpe2m146; LucPpe2m146, 0.1%, 65 min (times of Table I r54)", "value": 133.11, "unit": "%"},
      {"measurement": "Average Relative Light Units", "setting": "LucPpe2m146; LucPpe2m146, 0.1%, 115 min (head r54)", "value": 6340.45, "unit": "rlu"},
      {"measurement": "Percent of Luminescence Remaining", "setting": "LucPpe2m146; LucPpe2m146, 0.1%, 115 min (times of Table I r54)", "value": 123.11, "unit": "%"},
      {"measurement": "Average Relative Light Units", "setting": "LucPpe2m146; LucPpe2m146, 0.1%, 175 min (head r54)", "value": 7347.09, "unit": "rlu"},
      {"measurement": "Percent of Luminescence Remaining", "setting": "LucPpe2m146; LucPpe2m146, 0.1%, 175 min (times of Table I r54)", "value": 142.65, "unit": "%"},
      {"measurement": "Average Relative Light Units", "setting": "LucPpe2m146; LucPpe2m146, 0.1%, 238 min (head r54)", "value": 6801.23, "unit": "rlu"},
      {"measurement": "Percent of Luminescence Remaining", "setting": "LucPpe2m146; LucPpe2m146, 0.1%, 238 min (times of Table I r54)", "value": 132.05, "unit": "%"},
      {"measurement": "Average Relative Light Units", "setting": "LucPpe2m146; LucPpe2m146, 0.1%, 286 min (head r54)", "value": 7472.54, "unit": "rlu"},
      {"measurement": "Percent of Luminescence Remaining", "setting": "LucPpe2m146; LucPpe2m146, 0.1%, 286 min (times of Table I r54)", "value": 145.09, "unit": "%"},
      {"measurement": "Average Relative Light Units", "setting": "LucPpe2m146; LucPpe2m146, 0.5%, 15 min (head r41)", "value": 45.977, "unit": "rlu"},
      {"measurement": "Percent of Luminescence Remaining", "setting": "LucPpe2m146; LucPpe2m146, 0.5%, 15 min (times of Table I r41)", "value": 100.00, "unit": "%"},
      {"measurement": "Average Relative Light Units", "setting": "LucPpe2m146; LucPpe2m146, 0.5%, 72 min (head r41)", "value": 229.874, "unit": "rlu"},
      {"measurement": "Percent of Luminescence Remaining", "setting": "LucPpe2m146; LucPpe2m146, 0.5%, 72 min (times of Table I r41)", "value": 499.98, "unit": "%"},
      {"measurement": "Average Relative Light Units", "setting": "LucPpe2m146; LucPpe2m146, 0.5%, 124 min (head r41)", "value": 2059.397, "unit": "rlu"},
      {"measurement": "Percent of Luminescence Remaining", "setting": "LucPpe2m146; LucPpe2m146, 0.5%, 124 min (times of Table I r41)", "value": 4479.22, "unit": "%"},
      {"measurement": "Average Relative Light Units", "setting": "LucPpe2m146; LucPpe2m146, 0.5%, 190 min (head r41)", "value": 1414.397, "unit": "rlu"},
      {"measurement": "Percent of Luminescence Remaining", "setting": "LucPpe2m146; LucPpe2m146, 0.5%, 190 min (times of Table I r41)", "value": 3076.34, "unit": "%"},
      {"measurement": "Average Relative Light Units", "setting": "LucPpe2m146; LucPpe2m146, 0.5%, 251 min (head r41)", "value": 1342.963, "unit": "rlu"},
      {"measurement": "Percent of Luminescence Remaining", "setting": "LucPpe2m146; LucPpe2m146, 0.5%, 251 min (times of Table I r41)", "value": 2920.97, "unit": "%"},
      {"measurement": "precipitation in the samples", "setting": "[1]; 0.1% deoxycholate", "value": "slight precipitation"},
      {"measurement": "precipitation in the samples", "setting": "[1]; 0.5% deoxycholate", "value": "substantial precipitation"},
      {"measurement": "Average Relative Light Units", "setting": "LucPpy; 0.02%, 0.75 min (head r32)", "value": 3199.250, "unit": "rlu"},
      {"measurement": "Percent of Luminescence Remaining", "setting": "LucPpy; 0.02%, 0.75 min (times of Table I r32)", "value": 100.00, "unit": "%"},
      {"measurement": "Average Relative Light Units", "setting": "LucPpy; 0.02%, 38 min (head r32)", "value": 2844.010, "unit": "rlu"},
      {"measurement": "Percent of Luminescence Remaining", "setting": "LucPpy; 0.02%, 38 min (times of Table I r32)", "value": 88.90, "unit": "%"},
      {"measurement": "Average Relative Light Units", "setting": "LucPpy; 0.02%, 70 min (head r32)", "value": 2626.260, "unit": "rlu"},
      {"measurement": "Percent of Luminescence Remaining", "setting": "LucPpy; 0.02%, 70 min (times of Table I r32)", "value": 82.09, "unit": "%"},
      {"measurement": "Average Relative Light Units", "setting": "LucPpy; 0.02%, 94 min (head r32)", "value": 2496.570, "unit": "rlu"},
      {"measurement": "Percent of Luminescence Remaining", "setting": "LucPpy; 0.02%, 94 min (times of Table I r32)", "value": 78.04, "unit": "%"},
      {"measurement": "Average Relative Light Units", "setting": "LucPpy; 0.02%, 122 min (head r32)", "value": 2314.910, "unit": "rlu"},
      {"measurement": "Percent of Luminescence Remaining", "setting": "LucPpy; 0.02%, 122 min (times of Table I r32)", "value": 72.3, "unit": "%"},
      {"measurement": "Average Relative Light Units", "setting": "LucPpy; 0.1%, 0.75 min (head r18)", "value": 19.771, "unit": "rlu"},
      {"measurement": "Percent of Luminescence Remaining", "setting": "LucPpy; 0.1%, 0.75 min (times of Table I r18)", "value": 100.00, "unit": "%"},
      {"measurement": "Average Relative Light Units", "setting": "LucPpy; 0.1%, 10 min (head r18)", "value": 0.180, "unit": "rlu"},
      {"measurement": "Percent of Luminescence Remaining", "setting": "LucPpy; 0.1%, 10 min (times of Table I r18)", "value": 0.91, "unit": "%"},
      {"measurement": "Average Relative Light Units", "setting": "LucPpy; 0.1%, 36 min (head r18)", "value": 0.026, "unit": "rlu"},
      {"measurement": "Percent of Luminescence Remaining", "setting": "LucPpy; 0.1%, 36 min (times of Table I r18)", "value": 0.13, "unit": "%"},
      {"measurement": "Average Relative Light Units", "setting": "LucPpy; 0.5%, 0.75 min (head r5)", "value": 4.801, "unit": "rlu"},
      {"measurement": "Percent of Luminescence Remaining", "setting": "LucPpy; 0.5%, 0.75 min (times of Table I r5)", "value": 100.00, "unit": "%"},
      {"measurement": "Average Relative Light Units", "setting": "LucPpy; 0.5%, 21 min (head r5)", "value": 0.012, "unit": "rlu"},
      {"measurement": "Percent of Luminescence Remaining", "setting": "LucPpy; 0.5%, 21 min (times of Table I r5)", "value": 0.25, "unit": "%"},
      {"measurement": "Average Relative Light Units", "setting": "LucPpy; 0.5%, 39 min (head r5)", "value": 0.007, "unit": "rlu"},
      {"measurement": "Percent of Luminescence Remaining", "setting": "LucPpy; 0.5%, 39 min (times of Table I r5)", "value": 0.15, "unit": "%"}
    ]}
  ]
}
